# In ChEMBL document CHEMBL1201862, “PubChem BioAssay data set” (2004):
# Calls of active or inactive are those of the source. Cut-off read from the data, not from the text of the source, for most assays here: actives have a measured EC50 and inactives only a lower limit.
# What was measured:
# [1] = NIH3T3 cell viability loss – ATP luminescence, mouse fibroblasts, counter-screen, dose response (AID 2010); assay type: functional, cell-based;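 note: cells exposed to compound for about 90 hours before reading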
# Beta-galactosidase = Beta-galactosidase (Escherichia coli, UniProt Q8VNN2); assay: PubChem AID 485352; assay type: functional
# Sequence of Beta-galactosidase (Q8VNN2 whole entry): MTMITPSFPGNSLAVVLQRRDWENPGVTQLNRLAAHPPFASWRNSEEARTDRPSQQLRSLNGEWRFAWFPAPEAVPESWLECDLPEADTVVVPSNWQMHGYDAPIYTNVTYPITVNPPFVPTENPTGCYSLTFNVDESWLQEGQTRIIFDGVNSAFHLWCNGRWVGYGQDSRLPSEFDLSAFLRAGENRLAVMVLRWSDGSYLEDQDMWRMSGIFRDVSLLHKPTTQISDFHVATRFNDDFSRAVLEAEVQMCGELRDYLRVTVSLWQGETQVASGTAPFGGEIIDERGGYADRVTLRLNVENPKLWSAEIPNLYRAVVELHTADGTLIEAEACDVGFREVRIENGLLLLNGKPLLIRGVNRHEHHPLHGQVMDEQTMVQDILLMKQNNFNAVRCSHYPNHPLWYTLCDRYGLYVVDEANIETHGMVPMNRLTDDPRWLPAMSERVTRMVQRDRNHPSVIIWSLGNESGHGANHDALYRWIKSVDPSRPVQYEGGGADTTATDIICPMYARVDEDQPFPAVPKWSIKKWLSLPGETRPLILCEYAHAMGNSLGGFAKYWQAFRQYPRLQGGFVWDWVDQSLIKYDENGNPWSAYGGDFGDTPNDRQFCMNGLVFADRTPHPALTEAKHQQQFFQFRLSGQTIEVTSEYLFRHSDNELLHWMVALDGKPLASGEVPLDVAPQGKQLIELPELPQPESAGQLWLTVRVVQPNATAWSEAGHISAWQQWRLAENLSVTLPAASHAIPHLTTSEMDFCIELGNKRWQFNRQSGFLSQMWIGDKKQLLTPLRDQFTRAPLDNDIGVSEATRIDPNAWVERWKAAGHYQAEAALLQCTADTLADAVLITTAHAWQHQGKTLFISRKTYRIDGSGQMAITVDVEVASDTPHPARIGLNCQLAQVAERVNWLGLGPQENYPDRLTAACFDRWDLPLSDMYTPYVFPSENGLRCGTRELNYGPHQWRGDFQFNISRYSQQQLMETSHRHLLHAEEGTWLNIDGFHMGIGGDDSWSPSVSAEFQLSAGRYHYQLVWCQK
# Exodeoxyribonuclease V = biological target: T1, Exodeoxyribonuclease V (Escherichia coli (strain K12), UniProt P04993+P07648+P08394); assay: RecBCD inhibition via phage-restricted bacterial growth – absorbance, V66 E. coli, mutant T4 phage, counter-screen for AddAB inhibitor project, dose response (AID 492957); assay type: functional, cell-based, Escherichia coli str. K-12 substr. MG1655
# T1 sequence (P04993 whole entry): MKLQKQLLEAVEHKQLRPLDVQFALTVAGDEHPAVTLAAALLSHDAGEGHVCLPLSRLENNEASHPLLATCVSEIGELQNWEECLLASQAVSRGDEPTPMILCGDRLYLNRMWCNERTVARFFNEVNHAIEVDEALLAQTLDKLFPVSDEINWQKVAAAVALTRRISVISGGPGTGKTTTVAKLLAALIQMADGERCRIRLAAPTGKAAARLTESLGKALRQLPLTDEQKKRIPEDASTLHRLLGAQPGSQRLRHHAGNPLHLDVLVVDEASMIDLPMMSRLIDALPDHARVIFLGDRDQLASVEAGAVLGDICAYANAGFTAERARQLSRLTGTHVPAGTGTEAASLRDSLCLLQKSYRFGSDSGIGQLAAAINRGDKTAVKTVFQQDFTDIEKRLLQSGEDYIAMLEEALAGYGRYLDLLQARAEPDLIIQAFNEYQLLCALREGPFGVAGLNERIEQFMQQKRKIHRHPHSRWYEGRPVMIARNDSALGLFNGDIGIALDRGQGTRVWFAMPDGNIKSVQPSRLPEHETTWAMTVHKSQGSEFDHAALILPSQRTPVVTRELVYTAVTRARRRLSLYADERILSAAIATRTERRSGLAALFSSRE
# T1 sequence (P07648 whole entry): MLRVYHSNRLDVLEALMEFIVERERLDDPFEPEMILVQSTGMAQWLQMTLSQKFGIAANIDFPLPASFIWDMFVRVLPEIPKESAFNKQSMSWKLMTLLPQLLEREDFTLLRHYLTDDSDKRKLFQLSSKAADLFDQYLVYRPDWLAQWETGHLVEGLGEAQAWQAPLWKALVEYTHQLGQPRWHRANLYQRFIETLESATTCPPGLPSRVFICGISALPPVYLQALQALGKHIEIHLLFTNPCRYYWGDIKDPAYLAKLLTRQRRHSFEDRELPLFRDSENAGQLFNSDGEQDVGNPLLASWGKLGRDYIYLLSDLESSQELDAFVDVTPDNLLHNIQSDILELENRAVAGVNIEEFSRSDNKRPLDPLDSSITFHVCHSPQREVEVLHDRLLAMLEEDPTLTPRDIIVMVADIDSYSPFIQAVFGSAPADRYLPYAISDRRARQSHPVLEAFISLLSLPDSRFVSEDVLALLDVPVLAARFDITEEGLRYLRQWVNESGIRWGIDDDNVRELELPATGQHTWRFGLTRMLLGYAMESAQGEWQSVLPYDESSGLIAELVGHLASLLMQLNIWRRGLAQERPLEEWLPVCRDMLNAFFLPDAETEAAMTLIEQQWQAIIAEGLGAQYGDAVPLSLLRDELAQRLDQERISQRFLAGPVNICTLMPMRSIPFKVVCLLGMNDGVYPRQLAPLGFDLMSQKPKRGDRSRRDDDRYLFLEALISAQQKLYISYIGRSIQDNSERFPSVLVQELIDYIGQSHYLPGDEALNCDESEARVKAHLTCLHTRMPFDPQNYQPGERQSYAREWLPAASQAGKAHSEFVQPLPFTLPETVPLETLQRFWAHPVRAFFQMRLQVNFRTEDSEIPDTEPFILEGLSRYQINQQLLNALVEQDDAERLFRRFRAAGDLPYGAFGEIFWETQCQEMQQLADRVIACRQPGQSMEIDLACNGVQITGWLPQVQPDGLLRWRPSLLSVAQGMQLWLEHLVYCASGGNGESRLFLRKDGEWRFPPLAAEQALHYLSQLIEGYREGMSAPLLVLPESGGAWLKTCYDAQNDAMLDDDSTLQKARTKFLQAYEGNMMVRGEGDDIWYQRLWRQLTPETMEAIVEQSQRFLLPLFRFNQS
# T1 sequence (P08394 whole entry): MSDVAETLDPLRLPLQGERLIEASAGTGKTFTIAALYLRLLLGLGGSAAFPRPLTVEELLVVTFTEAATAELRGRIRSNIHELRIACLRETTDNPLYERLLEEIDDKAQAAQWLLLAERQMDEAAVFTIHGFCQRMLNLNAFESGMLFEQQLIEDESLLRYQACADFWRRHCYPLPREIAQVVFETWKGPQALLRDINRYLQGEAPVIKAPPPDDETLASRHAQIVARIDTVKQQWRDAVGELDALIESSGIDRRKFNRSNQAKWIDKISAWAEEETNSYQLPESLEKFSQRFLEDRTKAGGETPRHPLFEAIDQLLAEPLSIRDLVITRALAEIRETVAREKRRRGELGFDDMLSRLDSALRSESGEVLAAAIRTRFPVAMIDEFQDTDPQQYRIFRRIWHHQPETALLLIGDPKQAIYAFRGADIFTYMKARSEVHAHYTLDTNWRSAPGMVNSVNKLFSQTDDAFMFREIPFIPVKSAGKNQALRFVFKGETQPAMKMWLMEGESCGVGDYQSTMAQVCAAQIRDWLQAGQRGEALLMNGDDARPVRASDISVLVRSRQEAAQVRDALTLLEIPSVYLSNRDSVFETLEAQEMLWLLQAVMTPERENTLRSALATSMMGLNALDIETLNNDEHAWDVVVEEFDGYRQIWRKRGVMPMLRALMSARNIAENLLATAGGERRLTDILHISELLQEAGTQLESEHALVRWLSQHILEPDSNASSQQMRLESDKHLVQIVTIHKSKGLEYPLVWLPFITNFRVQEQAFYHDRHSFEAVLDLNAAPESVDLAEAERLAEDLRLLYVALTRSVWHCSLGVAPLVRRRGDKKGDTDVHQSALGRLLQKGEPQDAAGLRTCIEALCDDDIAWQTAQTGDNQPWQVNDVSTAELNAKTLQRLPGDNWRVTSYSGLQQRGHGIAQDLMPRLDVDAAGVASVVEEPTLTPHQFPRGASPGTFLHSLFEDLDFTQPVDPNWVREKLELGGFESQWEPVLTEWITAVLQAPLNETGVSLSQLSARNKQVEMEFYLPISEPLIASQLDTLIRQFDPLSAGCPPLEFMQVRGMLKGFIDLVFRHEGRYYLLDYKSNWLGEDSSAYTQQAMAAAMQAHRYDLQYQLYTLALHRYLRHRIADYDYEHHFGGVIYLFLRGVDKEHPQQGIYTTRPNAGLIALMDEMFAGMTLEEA
compound,measurement,setting,value
CCCCCCCCCCOC(=O)Cn1c(COc2ccccc2)[n+](C)c2ccccc21,EC50,[1],> 60 µM (not active)
CCOC(=O)c1c(-c2ccc(-c3ccccc3)cc2)csc1NC(=O)CNCCN(C)C,EC50,Beta-galactosidase,> 40 µM (inactive)
COc1cc(-c2nnc(SCc3cc(=O)oc4cc(O)c(O)cc34)o2)cc(OC)c1OC,IC50,Exodeoxyribonuclease V,> 119 µM (inactive)
